Results published in patent publication US20230114728A1 (Venatorx Pharmaceuticals, Inc., priority 2019, published 2023).
≈ marks a conversion by molar mass, not a printed value.

How the values were obtained:
E. coli K12 PBP3 = target: T1, E. coli K12 PBP3 (Escherichia coli, UniProt P0AD68); assay: biochemical; type: binding
T1 construct: made in house
How it was run: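 Fluorescence polarization (ex 490/em 520 nm) competition of inhibitors against Bocillin-FL at 0.1 μM, read up to 60 min. Final PBP levels: E. coli PBP3 1.5 μM; A. baumannii PBP2 2.5 μM, PBP3 0.2 μM in Tris pH 8.0/NaCl/glycerol/Tween 20; N. gonorrhoeae PBP2 […] in Hepes pH 8.0/NaCl/glycerol. EC50 = concentration halving PBP-bound Bocillin-FL.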

P. aeruginosa PBP3 = target: T2, P. aeruginosa PBP3 (Pseudomonas aeruginosa, UniProt G3XD46); assay: Bocillin-FL fluorescence polarization competition binding assay, P. aeruginosa PBP3; details: fluorescence polarization competition binding assay using Bocillin-FL
T2 construct: made in house
How it was run: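 Binding of boronic acid inhibitors to purified Pseudomonas aeruginosa (PA01) PBP3 was measured by fluorescence polarization competition with Bocillin-FL, a fluorescent penicillin V. Reactions of 80 μl contained 0.75 μM PBP3 and 0.1 μM Bocillin-FL in 50 mM Hepes (pH 8.0), 300 mM NaCl and 5% (v/v) glycerol, in black 384-well plates. FP (Excitation 490 nm, Emission 520 nm) was read for up to 60 minutes. EC50 is the concentration that halves PBP-bound Bocillin-FL.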

E. coli AG100A = assay: Broth microdilution MIC in CAMHB; type: cell-based; details: Escherichia coli, read-out: Minimum Inhibitory Concentration, E. coli AG100A
How it was run: (§1)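 Colonies from cation-adjusted Mueller Hinton agar are grown in broth (3-5 h, 37° C), adjusted by OD600, and added at 2-8×10^5 CFU/mL to 2-fold compound dilutions. After 16-20 h at 37° C, the lowest concentration without growth is taken as MIC.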

E. coli AG100 = assay: Broth microdilution MIC in CAMHB; type: cell-based; details: Escherichia coli; E. coli AG100 (wild-type parent); MHB; read-out: Minimum Inhibitory Concentration, E. coli AG100
How it was run: as §1

E. coli ATCC 25922 = assay: Broth microdilution MIC in CAMHB; type: cell-based; details: Escherichia coli, ATCC25922; E. coli ATCC 25922; MHB; read-out: Minimum Inhibitory Concentration, E. coli 25922
How it was run: as §1

E. coli D22 = assay: Broth microdilution MIC in CAMHB; type: cell-based; details: Escherichia coli; E. coli D22 (hyper-permeable); MHB; read-out: Minimum Inhibitory Concentration, E. coli D22
How it was run: as §1

[1] = test system: K. pneumoniae 848844 producing SHV-11 and KPC-2; assay: Broth microdilution MIC in CAMHB; type: cell-based; details: Klebsiella pneumoniae, read-out: Minimum Inhibitory Concentration, K. pneumoniae 848844
How it was run: as §1

[2] = test system: K. pneumoniae SI-117 producing VIM-1; assay: Broth microdilution MIC in CAMHB; type: cell-based; details: Klebsiella pneumoniae, read-out: Minimum Inhibitory Concentration, K. pneumoniae SI-117
How it was run: as §1

P. aeruginosa ATCC 27853 = assay: Broth microdilution MIC in CAMHB; type: cell-based; details: Pseudomonas aeruginosa, ATCC27853; MHB; read-out: Minimum Inhibitory Concentration, P. aeruginosa ATCC 27853
How it was run: as §1

T2 sequence (G3XD46 whole entry): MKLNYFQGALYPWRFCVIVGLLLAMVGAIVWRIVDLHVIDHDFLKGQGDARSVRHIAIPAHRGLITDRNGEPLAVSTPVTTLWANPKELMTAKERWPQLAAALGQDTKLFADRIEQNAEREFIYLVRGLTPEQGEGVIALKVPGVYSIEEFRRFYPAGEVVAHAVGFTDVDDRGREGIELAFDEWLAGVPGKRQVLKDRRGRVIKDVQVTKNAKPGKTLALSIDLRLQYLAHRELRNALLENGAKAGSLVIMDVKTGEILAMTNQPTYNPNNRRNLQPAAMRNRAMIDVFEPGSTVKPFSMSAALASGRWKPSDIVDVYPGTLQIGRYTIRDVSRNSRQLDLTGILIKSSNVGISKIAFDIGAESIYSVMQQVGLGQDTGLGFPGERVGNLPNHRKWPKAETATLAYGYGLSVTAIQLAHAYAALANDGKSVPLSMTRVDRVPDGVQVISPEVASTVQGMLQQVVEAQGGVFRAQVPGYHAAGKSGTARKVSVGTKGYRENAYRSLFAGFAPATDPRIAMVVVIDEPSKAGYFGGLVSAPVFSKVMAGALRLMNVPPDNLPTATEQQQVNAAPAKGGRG
T1 sequence (P0AD68 1-577): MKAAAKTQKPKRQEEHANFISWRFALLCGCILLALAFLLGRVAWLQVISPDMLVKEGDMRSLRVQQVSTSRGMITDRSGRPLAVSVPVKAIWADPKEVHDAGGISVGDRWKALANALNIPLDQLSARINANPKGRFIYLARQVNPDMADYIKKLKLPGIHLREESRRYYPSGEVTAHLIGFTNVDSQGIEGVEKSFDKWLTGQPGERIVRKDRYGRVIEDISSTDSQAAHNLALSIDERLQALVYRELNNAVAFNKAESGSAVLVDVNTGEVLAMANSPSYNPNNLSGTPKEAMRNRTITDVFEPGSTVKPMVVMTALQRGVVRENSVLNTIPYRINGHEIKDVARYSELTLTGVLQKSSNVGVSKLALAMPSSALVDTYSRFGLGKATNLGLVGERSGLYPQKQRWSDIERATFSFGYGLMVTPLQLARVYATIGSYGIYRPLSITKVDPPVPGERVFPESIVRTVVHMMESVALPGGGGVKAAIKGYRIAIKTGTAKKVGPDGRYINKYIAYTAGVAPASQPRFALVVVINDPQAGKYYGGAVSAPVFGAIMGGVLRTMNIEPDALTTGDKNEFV

Row | Structure (SMILES) | EC50 (E. coli K12 PBP3) | P. aeruginosa PBP3 Potency (P. aeruginosa PBP3) | MIC (E. coli AG100A) | MIC (E. coli AG100) | MIC (E. coli ATCC 25922) | MIC (E. coli D22) | MIC [1] | MIC [2] | MIC (P. aeruginosa ATCC 27853)
1 | NCCN1CCN(C(=O)N[C@@H](C(=O)N[C@H]2Cc3cccc(C(=O)O)c3OB2O)c2ccc(O)c(Cl)c2F)C(=O)C1=O (single isomer, unassigned) [Example 186] | < 30 µM | D (D represents a potency <10 μM) | 2 to 4 µg/mL (≈ 3.38 to 6.76 µM) | 8 to 16 µg/mL (≈ 13.5 to 27 µM) | 8 to 16 µg/mL (≈ 13.5 to 27 µM) | 2 to 4 µg/mL (≈ 3.38 to 6.76 µM) | 32 to 64 µg/mL (≈ 54.1 to 108 µM) | 32 to 64 µg/mL (≈ 54.1 to 108 µM) | 32 to 64 µg/mL (≈ 54.1 to 108 µM)
2 | NCCN1CCN(C(=O)N[C@H](C(=O)N[C@H]2Cc3cccc(C(=O)O)c3OB2O)c2ccc(O)c(Cl)c2F)C(=O)C1=O (single isomer, unassigned) [Example 187] | 30 to 500 µM | B (B represents a potency between 30 μM and 500 μM inclusive) | 8 to 16 µg/mL (≈ 13.5 to 27 µM) | > 128 µg/mL | > 128 µg/mL | 32 to 64 µg/mL (≈ 54.1 to 108 µM) | > 128 µg/mL | > 128 µg/mL | > 128 µg/mL
3 | CS(=O)(=O)N1CCN(C(=O)N[C@@H](C(=O)N[C@H]2Cc3ccc(F)c(C(=O)O)c3OB2O)c2cc(F)c(O)c(O)c2Cl)C1=O (single isomer, unassigned) [Example 189] | < 30 µM | D (D represents a potency <10 μM) | 2 to 4 µg/mL (≈ 3.16 to 6.32 µM) | 8 to 16 µg/mL (≈ 12.6 to 25.3 µM) | 2 to 4 µg/mL (≈ 3.16 to 6.32 µM) | 0.5 to 1 µg/mL (≈ 0.79 to 1.58 µM) | 2 to 4 µg/mL (≈ 3.16 to 6.32 µM) | 8 to 16 µg/mL (≈ 12.6 to 25.3 µM) | 2 to 4 µg/mL (≈ 3.16 to 6.32 µM)
4 | NCCN1CCN(C(=O)N[C@@H](C(=O)N[C@H]2Cc3cccc(C(=O)O)c3OB2O)c2c(O)cc(O)cc2F)C(=O)C1=O (single isomer, unassigned) [Example 194] | < 30 µM | D (D represents a potency <10 μM) | 2 to 4 µg/mL (≈ 3.49 to 6.98 µM) | 8 to 16 µg/mL (≈ 14 to 27.9 µM) | 8 to 16 µg/mL (≈ 14 to 27.9 µM) | 2 to 4 µg/mL (≈ 3.49 to 6.98 µM) | 32 to 64 µg/mL (≈ 55.8 to 112 µM) | 32 to 64 µg/mL (≈ 55.8 to 112 µM) | > 128 µg/mL
5 | NCCCN1CCN(C(=O)N[C@@H](C(=O)N[C@H]2Cc3cccc(C(=O)O)c3OB2O)c2c(O)cc(O)cc2F)C(=O)C1=O (single isomer, unassigned) [Example 195] | < 30 µM | D (D represents a potency <10 μM) | 2 to 4 µg/mL (≈ 3.41 to 6.81 µM) | 8 to 16 µg/mL (≈ 13.6 to 27.2 µM) | 8 to 16 µg/mL (≈ 13.6 to 27.2 µM) | 2 to 4 µg/mL (≈ 3.41 to 6.81 µM) | 32 to 64 µg/mL (≈ 54.5 to 109 µM) | 32 to 64 µg/mL (≈ 54.5 to 109 µM) | > 128 µg/mL
6 | NCCN1CCN(C(=O)N[C@@H](C(=O)N[C@H]2Cc3cccc(C(=O)O)c3OB2O)c2ccc(O)c([N+](=O)[O-])c2)C(=O)C1=O (single isomer, unassigned) [Example 199] | < 30 µM | D (D represents a potency <10 μM) | 2 to 4 µg/mL (≈ 3.42 to 6.85 µM) | > 128 µg/mL | 32 to 64 µg/mL (≈ 54.8 to 110 µM) | 8 to 16 µg/mL (≈ 13.7 to 27.4 µM) | > 128 µg/mL | > 128 µg/mL | > 128 µg/mL
7 | NCCN1CCN(C(=O)N[C@H](C(=O)N[C@H]2Cc3cccc(C(=O)O)c3OB2O)c2ccc(O)c([N+](=O)[O-])c2)C(=O)C1=O (single isomer, unassigned) [Example 200] | > 500 µM | C (C represents a potency between 10 and 30 μM) | 32 to 64 µg/mL (≈ 54.8 to 110 µM) | > 128 µg/mL | > 128 µg/mL | > 128 µg/mL | > 128 µg/mL | > 128 µg/mL | > 128 µg/mL
8 | CCN1CCN(C(=O)N[C@H](C(=O)N[C@H]2Cc3cccc(C(=O)O)c3OB2O)c2ccc(C(=O)O)c(F)c2Cl)C(=O)C1=O (single isomer, unassigned) [Example 202] | 30 to 500 µM | C (C represents a potency between 10 and 30 μM) | 32 to 64 µg/mL (≈ 52.9 to 106 µM) | > 128 µg/mL | > 128 µg/mL | 8 to 16 µg/mL (≈ 13.2 to 26.5 µM) | > 128 µg/mL | > 128 µg/mL | > 128 µg/mL
9 | CCN1CCN(C(=O)N[C@@H](C(=O)N[C@H]2Cc3cccc(C(=O)O)c3OB2O)c2ccc(C(=O)O)c(F)c2Cl)C(=O)C1=O (single isomer, unassigned) [Example 203] | < 30 µM | D (D represents a potency <10 μM) | 8 to 16 µg/mL (≈ 13.2 to 26.5 µM) | 32 to 64 µg/mL (≈ 52.9 to 106 µM) | > 128 µg/mL | 2 to 4 µg/mL (≈ 3.31 to 6.61 µM) | > 128 µg/mL | > 128 µg/mL | > 128 µg/mL
10 | NCCN1CCN(C(=O)N[C@H](C(=O)N[C@H]2Cc3cccc(C(=O)O)c3OB2O)c2c(F)cccc2F)C(=O)C1=O (single isomer, unassigned) [Example 204] | > 500 µM | B (B represents a potency between 30 μM and 500 μM inclusive) | 32 to 64 µg/mL (≈ 57.2 to 114 µM) | > 128 µg/mL | > 128 µg/mL | > 128 µg/mL | > 128 µg/mL | > 128 µg/mL | > 128 µg/mL
11 | NCCN1CCN(C(=O)N[C@@H](C(=O)N[C@H]2Cc3cccc(C(=O)O)c3OB2O)c2c(F)cccc2Cl)C(=O)C1=O (single isomer, unassigned) [Example 205] | 30 to 500 µM | C (C represents a potency between 10 and 30 μM) | 8 to 16 µg/mL (≈ 13.9 to 27.8 µM) | > 128 µg/mL | > 128 µg/mL | 32 to 64 µg/mL (≈ 55.6 to 111 µM) | > 128 µg/mL | > 128 µg/mL | > 128 µg/mL
12 | NCCN1CCN(C(=O)N[C@H](C(=O)N[C@H]2Cc3cccc(C(=O)O)c3OB2O)c2c(F)cccc2Cl)C(=O)C1=O (single isomer, unassigned) [Example 206] | > 500 µM | B (B represents a potency between 30 μM and 500 μM inclusive) | 32 to 64 µg/mL (≈ 55.6 to 111 µM) | > 128 µg/mL | > 128 µg/mL | > 128 µg/mL | > 128 µg/mL | > 128 µg/mL | > 128 µg/mL
13 | CCN1CCN(C(=O)NC(C(=O)N[C@H]2Cc3ccc(F)c(C(=O)O)c3OB2O)c2ncc(C(=O)O)cc2F)C(=O)C1=O (stereo partly drawn) [Example 33, 6-(2-(((R)-8-carboxy-7-fluoro-2-hydroxy-3,4-dihydro-2H-benzo[e][1,2]oxaborinin-3-yl)amino)-1-(4-ethyl-2,3-dioxopiperazine-1-carboxamido)-2-oxoethyl)-5-fluoronicotinic acid] |  | D (D represents a potency <10 μM) | > 128 µg/mL | > 128 µg/mL | > 128 µg/mL | 2 to 4 µg/mL (≈ 3.39 to 6.79 µM) | > 128 µg/mL | > 128 µg/mL | > 128 µg/mL
